In this experiment the test system is AMO-1. As to the kind of experiment: Antiproliferation assay AMO-1 (Assay 7). The conditions noted are these: AMO-1 cells, CellTiter-Glo, single determinations, read-out: IC50 Antiproli AMO-1. The class given is cell-based. The essentials:
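Treated cells sat 72 h in a humidified 37 °C incubator, outer wells unused, before CellTiter-Glo reagent and a 10 min wait preceded luminescence reading; identical measurement of a parallel day 0 plate defined time zero.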
A general note: Cellular ATP, detected with luciferase, serves as a proxy for viable cell number.

Where “and” joins values, the source holds several entries; their conditions need not be identical. Identical values can stand only once. Like-named read-outs stand apart in the source and are kept apart here.

On to `Cc1c2c(nn1C)COCCCCn1c(C(=O)O)c(CCCOc3cccc4c3CCCC4)c3ccc(F)c-2c31` (racemic) [Example 18, (rac)-13-fluoro-11,12-dimethyl-1-(3-((5,6,7,8-tetrahydronaphthalen-1-yl)oxy)propyl)-4,5,6,7,9,11-hexahydropyrazolo[4′,3′:9,10][1]oxa[6]azacycloundecino[8,7,6-hi]indole-2-carboxylic acid], for which the IC50 (commonly the midpoint of a concentration-inhibition curve) by setting is: (72 h) 2.16 µM and 3.19 µM; (Homo sapiens, AMO1, 72 h) 3.98 µM.
In the case of `Cc1c2c(nn1C)COCCCCn1c(C(=O)O)c(CCCOc3cccc4c3CCC4)c3ccc(F)c-2c31` (racemic) [Example 19, (rac)-1-(3-((2,3-dihydro-1H-inden-4-yl)oxy)propyl)-13-fluoro-11,12-dimethyl-4,5,6,7,9,11-hexahydropyrazolo[4′,3′:9,10][1]oxa[6]azacycloundecino[8,7,6-hi]indole-2-carboxylic acid], the IC50 is, setting by setting: (72 h) 4.06 µM; (Homo sapiens, AMO1, 72 h) 2.62 µM.
`CCc1c2c(nn1C)COCCCCn1c(C(=O)O)c(CCCOc3cccc4c3CCCC4)c3ccc(F)c-2c31` (racemic) [Example 29, (rac)-12-ethyl-13-fluoro-11-methyl-1-(3-((5,6,7,8-tetrahydronaphthalen-1-yl)oxy)propyl)-4,5,6,7,9,11-hexahydropyrazolo[4′,3′:9,10][1]oxa[6]azacycloundecino[8,7,6-hi]indole-2-carboxylic acid]: the IC50 (Homo sapiens, AMO1, 72 h) was 2.44 µM.
The same measure, in the same setting: in the case of `CCc1c2c(nn1C)COCCCCn1c(C(=O)O)c(CCCOc3cc(C)c(Cl)c(C)c3)c3ccc(F)c-2c31` (racemic) [Example 31, (rac)-1-(3-(4-chloro-3,5-dimethylphenoxy)propyl)-12-ethyl-13-fluoro-11-methyl-4,5,6,7,9,11-hexahydropyrazolo[4′,3′:9,10][1]oxa[6]azacycloundecino[8,7,6-hi]indole-2-carboxylic acid] it was above 33 µM.
Turning to `Cc1nn(C)c2c1-c1c(F)ccc3c(CCCOc4cccc5cc(F)ccc45)c(C(=O)O)n(c13)CCCCOC2` (racemic) [Example 32, (rac)-13-fluoro-1-(3-((6-fluoronaphthalen-1-yl)oxy)propyl)-10,12-dimethyl-4,5,6,7,9,10-hexahydropyrazolo[4′,3′:9,10][1]oxa[6]azacycloundecino[8,7,6-hi]indole-2-carboxylic acid], the IC50 reads like this: (72 h) 4.27 µM; (Homo sapiens, AMO1, 72 h) 3.98 µM.
As to `Cc1nn(C)c2c1-c1c(F)ccc3c(CCCOc4cccc5c4CCCC5)c(C(=O)O)n(c13)CCCCOC2` (racemic) [Example 34, (rac)-13-fluoro-10,12-dimethyl-1-(3-((5,6,7,8-tetrahydronaphthalen-1-yl)oxy)propyl)-4,5,6,7,9,10-hexahydropyrazolo[4′,3′:9,10][1]oxa[6]azacycloundecino[8,7,6-hi]indole-2-carboxylic acid], the IC50 (Homo sapiens, AMO1, 72 h) is 6.92 µM.
Still for that read-out and setting: in the case of `CCc1nn(C)c2c1-c1c(F)ccc3c(CCCOc4cccc5c4CCCC5)c(C(=O)O)n(c13)CCCCOC2` (racemic) [Example 44, (rac)-12-ethyl-13-fluoro-10-methyl-1-(3-((5,6,7,8-tetrahydronaphthalen-1-yl)oxy)propyl)-4,5,6,7,9,10-hexahydropyrazolo[4′,3′:9,10][1]oxa[6]azacycloundecino[8,7,6-hi]indole-2-carboxylic acid] it was 7.41 µM.
Still for that read-out and setting: in the case of `CCc1nn(C)c2c1-c1c(F)ccc3c(CCCOc4cccc5c4CCC5)c(C(=O)O)n(c13)CCCCOC2` (racemic) [Example 45, (rac)-1-(3-((2,3-dihydro-1H-inden-4-yl)oxy)propyl)-12-ethyl-13-fluoro-10-methyl-4,5,6,7,9,10-hexahydropyrazolo[4′,3′:9,10][1]oxa[6]azacycloundecino[8,7,6-hi]indole-2-carboxylic acid] it was 6.45 µM.

The values above are taken from patent US11286263B2, “Macrocyclic fluorine substituted indole derivatives” (The Broad Institute, Inc., priority 2017, dated 2022).
